Experimental data taken from patent US9173888B1, “Treatment and inhibition of protozoal diseases with nandrolone and its derivatives” (priority 2014, dated 2015).
Read-outs that look alike come from different tables or passages of the source.

System: Leishmania major promastigotes
Assay: Anti-leishmanial assay (promastigote culture, 72 h, microscopic counting)
Format: cell-based
[1] = 72 h at 21-22° C., assays repeated thrice, read-out: Leishmanicidal Activity (IC50 in μM)
[2] = Leishmania major, 72 h, 72 h at 21-22° C., assays repeated thrice, read-out: Leishmanicidal Activity (IC50 in μM)

`C[C@]12CC[C@H]3[C@@H](CCC4=CC(=O)CC[C@@]43O)[C@@H]1C[C@@H](O)[C@@H]2O` [Compound 3, 10β,16α,17β-Trihydroxy-19-nor-4-androsten-3-one] was tested, and the IC50 [1] was 77.4 µM.

In the case of `C[C@]12CC[C@H]3[C@@H](CCC4=CC(=O)CC[C@@]43O)[C@@H]1CC[C@@H]2O` [Compound 5, 10β,17β-Dihydroxy-19-nor-4-androsten-3-one], the IC50 [1] is reported as 54.9 µM.

`C[C@]12CC[C@H]3[C@@H](CCC4=CC(=O)CC[C@@]43O)[C@@H]1CCC2=O` [Compound 7, 10β-Hydroxy-19-nor-4-androsten-3,17-dione] showed an IC50 [1] of 61.1 µM.

For `C[C@]12CC[C@H]3[C@@H](C[C@@H](O)C4=CC(=O)CC[C@@H]43)[C@@H]1CC[C@@H]2O` [Compound 6, 6β,17β-Dihydroxy-19-nor-4-androsten-3-one], the IC50 [1] was 80.2 µM.

`C[C@]12CC[C@H]3[C@@H](C[C@@H](O)C4=CC(=O)CC[C@@]43O)[C@@H]1CC[C@@H]2O` [Compound 4, 6β,10β,17β-Trihydroxy-19-nor-4-androsten-3-one] showed an IC50 [1] of 70.9 µM.

With `C[C@]12CC[C@H]3[C@@H](CCC4=CC(=O)CC[C@@H]43)[C@@H]1CC[C@@H]2O` [Compound 1, 17β-Hydroxy-19-nor-4-androsten-3-one, reference compound] the IC50 [2] was 29.6 to 80.2 µM and the IC50 (read-out: Leishmanicidal Activity (IC50 in μM), 72 h at 21-22° C., assays repeated thrice, listed as Nandrolone (1)) was 32 µM.

Molecule `N=C(N)c1ccc(OCCCCCOc2ccc(C(=N)N)cc2)cc1` [Pentamidine, reference compound] has an IC50 [2] of 5.09 ± 0.09 µM and an IC50 (Leishmania major, 72 h, 72 h at 21-22° C., read-out: IC50 against leishmaniasis (unit printed as M)) of 5.09 µM.

Work on `C[C@]12CC[C@H]3[C@@H](CCC4=CC(=O)CC[C@@H]43)[C@@H]1C[C@H](O)[C@@H]2O` [Compound 8, 16β,17β-Dihydroxy-19-nor-4-androsten-3-one] yielded an IC50 [1] of 29.6 µM.

For `C[C@]12[C@H](O)C[C@H]3[C@@H](CCC4=CC(=O)CC[C@@]43O)[C@@H]1CC[C@@H]2O` [Compound 2, 10β,12β,17β-Trihydroxy-19-nor-4-androsten-3-one], the IC50 [1] was greater than 100 µM.

`C[C@@H]1[C@H](O)[C@@H](C)/C=C/C=C/C=C/C=C/C=C/C=C/C=C/[C@H](O[C@@H]2O[C@H](C)[C@@H](O)[C@H](N)[C@@H]2O)C[C@@H]2O[C@](O)(C[C@@H](O)C[C@@H](O)[C@H](O)CC[C@@H](O)C[C@@H](O)CC(=O)O[C@H]1C)C[C@H](O)[C@H]2C(=O)O` [Amphotericin B, reference compound] showed an IC50 [2] of 0.29 ± 0.05 µM.
